What follows are compounds tested against Recombinant human factor D (Homo sapiens (Human), UniProt P00746) (assay: biochemical). Conditions: Factor D inhibition data using Method 1; substrate Z-Lys-thiobenzyl, fluorescence readout; read-out: IC50.
Recombinant human factor D, sequence (P00746 26-253): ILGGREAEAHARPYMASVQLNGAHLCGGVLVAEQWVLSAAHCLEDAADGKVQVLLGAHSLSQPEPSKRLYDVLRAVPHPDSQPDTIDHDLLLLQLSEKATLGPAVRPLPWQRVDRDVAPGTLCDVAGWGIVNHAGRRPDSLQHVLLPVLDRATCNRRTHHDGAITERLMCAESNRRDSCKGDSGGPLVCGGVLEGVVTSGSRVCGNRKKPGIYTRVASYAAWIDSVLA
Format: biochemical
Method: Human Complement Factor D Assay: Method 1
Recombinant human factor D (expressed in E. coli and purified using standard methods) at 10 nM concentration is incubated with test compound at various concentrations for 1 hour at room temperature in 0.1 M Hepes buffer, pH 7.5, containing 1 mM MgCl2, 1 M NaCl and 0.05% CHAPS. […] IC50 values are calculated from percentage of inhibition of complement factor D-activity as a function of test compound concentration.
In the case of `CC1(C)CCC[C@H](NC(=O)[C@@H]2[C@@H]3C[C@@H]3CN2C(=O)Cn2nc(C(N)=O)c3ccncc32)C1` [Example 87, 1-{2-[(1R,2S,5S)-2-((S)-3,3-Dimethyl-cyclohexylcarbamoyl)-3-aza-bicyclo[3.1.0]hex-3-yl]-2-oxo-ethyl}-1H-pyrazolo[3,4-c]pyridine-3-carboxylic acid amide], the IC50 is reported as 6620 nM.
In the case of `CO[C@H]1CCC[C@@H](NC(=O)[C@@H]2C[C@H]3C[C@H]3N2C(=O)Cn2nc(C(C)=O)c3cc(OCc4ncccn4)ccc32)C1` [Example 94, (1R,3S,5R)-2-{2-[3-Acetyl-5-(pyrimidin-2-ylmethoxy)-indazol-1-yl]-acetyl}2-aza-bicyclo[3.1.0]hexane-3-carboxylic acid ((1R,3S)-3-methoxy-cyclohexyl)-amide], the IC50 is reported as 138 nM.
With `CC(=O)c1nn(CC(=O)N2[C@@H]3C[C@@H]3C[C@H]2C(=O)N[C@@H]2CCC[C@H](C(F)(F)F)C2)c2ccc(OCc3ncccn3)cc12` [Example 95, (1R,3S,5R)-2-{2-[3-Acetyl-5-(pyrimidin-2-ylmethoxy)-indazol-1-yl]-acetyl}-2-aza-bicyclo[3.1.0]hexane-3-carboxylic acid ((1R,3S)-3-trifluoromethyl-cyclohexyl)-amide] the IC50 was 25 nM.
In the case of `CC(=O)c1nn(CC(=O)N2[C@@H]3C[C@@H]3C[C@H]2C(=O)N[C@@H]2CCC[C@H](C)C2)c2ccc(OCc3ncccn3)cc12` [Example 96, (1R,3S,5R)-2-{2-[3-Acetyl-5-(pyrimidin-2-ylmethoxy)-indazol-1-yl]-acetyl}-2-aza-bicyclo[3.1.0]hexane-3-carboxylic acid ((1R,3S)-3-methyl-cyclohexyl)-amide], the IC50 is reported as 90 nM.
In the case of `CC(=O)c1nn(CC(=O)N2[C@@H]3C[C@@H]3C[C@H]2C(=O)NC2CC(C)(C)C2)c2ccc(OCc3ncccn3)cc12` [Example 103, (1R,3S,5R)-2-{2-[3-Acetyl-5-(pyrimidin-2-ylmethoxy)-indazol-1-yl]-acetyl}-2-aza-bicyclo[3.1.0]hexane-3-carboxylic acid (3,3-dimethyl-cyclobutyl)-amide], the IC50 is reported as 36 nM.
Compound `CC1(C)C[C@H](O)C[C@@H](NC(=O)[C@@H]2C[C@H]3C[C@H]3N2C(=O)Cn2nc(C(N)=O)c3ccccc32)C1` [Example 108, 1-{2-[(1R,3S,5R)-3-((1S,5S)-5-Hydroxy-3,3-dimethyl-cyclohexylcarbamoyl)-2-aza-bicyclo[3.1.0]hex-2-yl]-2-oxo-ethyl}-1H-indazole-3-carboxylic acid amide] has an IC50 of 2230 nM.
`CC1(C)C[C@@H](O)C[C@H](NC(=O)[C@@H]2C[C@H]3C[C@H]3N2C(=O)Cn2nc(C(N)=O)c3ccccc32)C1` [Example 109, 1-{2-[(1R,3S,5R)-3-((1R,5R)-5-Hydroxy-3,3-dimethyl-cyclohexylcarbamoyl)-2-aza-bicyclo[3.1.0]hex-2-yl]-2-oxo-ethyl}-1H-indazole-3-carboxylic acid amide] was tested, and the IC50 was 28 nM.
With `CC1(C)CCCC(NC(=O)[C@@H]2C[C@@]3(CO)C[C@H]3N2C(=O)Cn2nc(C(N)=O)c3ccccc32)C1` (stereo partly drawn) [Example 110, 1-{2-[(1R,3S,5S)-3-(3,3-Dimethyl-cyclohexylcarbamoyl)-5-hydroxymethyl-2-aza-bicyclo[3.1.0]hex-2-yl]-2-oxo-thyl}-1H-indazole-3-carboxylic acid amide] the IC50 was 48 nM.
`CC1(C)CCC[C@@H](NC(=O)[C@@H]2C[C@@]3(CO)C[C@H]3N2C(=O)Cn2nc(C(N)=O)c3ccccc32)C1` [Example 111, 1-{2-[(1R,3S,5S)-3-((R)-3,3-Dimethyl-cyclohexylcarbamoyl)-5-hydroxymethyl-2-aza-bicyclo[3.1.0]hex-2-yl]-2-oxo-ethyl}-1H-indazole-3-carboxylic acid amide] showed an IC50 of 10 nM.
`CC1(C)CCC[C@H](NC(=O)[C@@H]2C[C@@]3(CO)C[C@H]3N2C(=O)Cn2nc(C(N)=O)c3ccccc32)C1` [Example 112, 1-{2-[(1R,3S,5S)-3-((S)-3,3-Dimethyl-cyclohexylcarbamoyl)-5-hydroxymethyl-2-aza-bicyclo[3.1.0]hex-2-yl]-2-oxo-ethyl}-1H-indazole-3-carboxylic acid amide] gave an IC50 of 370 nM.
For `CC(=O)c1nn(CC(=O)N2[C@H](C(=O)N[C@@H]3CCCC(C)(C)C3)C[C@@]3(CO)C[C@@H]23)c2ncccc12` [Example 115, (1R,3S,5S)-2-[2-(3-Acetyl-pyrazolo[3,4-b]pyridin-1-yl)-acetyl]-5-hydroxymethyl-2-aza-bicyclo[3.1.0]hexane-3-carboxylic acid ((R)-3,3-dimethyl-cyclohexyl)-amide], the IC50 was 22 nM.
`CC(=O)c1nn(CC(=O)N2[C@H](C(=O)N[C@H]3CCCC(C)(C)C3)C[C@@]3(CO)C[C@@H]23)c2ncccc12` [Example 116, (1R,3S,5S)-2-[2-(3-Acetyl-pyrazolo[3,4-b]pyridin-1-yl)-acetyl]-5-hydroxymethyl-2-aza-bicyclo[3.1.0]hexane-3-carboxylic acid ((S)-3,3-dimethyl-cyclohexyl)-amide] gave an IC50 of 1600 nM.
In the case of `CC1(O)CCCC(NC(=O)[C@@H]2C[C@H]3C[C@H]3N2C(=O)Cn2nc(C(N)=O)c3ccccc32)C1` (stereo partly drawn) [Example 123, 1-(2-((1R,3S,5R)-3-(3-hydroxy-3-methylcyclohexylcarbamoyl)-2-azabicyclo[3.1.0]hexan-2-yl)-2-oxoethyl)-1H-indazole-3-carboxamide], the IC50 is reported as 920 nM.

Same assay, conditions: read-out: IC50
Work on `CC1(C)CCC[C@@H](NC(=O)[C@@H]2[C@@H]3C[C@@H]3CN2C(=O)Cn2nc(C(N)=O)c3ccccc32)C1` [Example 88, 1-{2-[(1R,2S,5S)-2-((R)-3,3-Dimethyl-cyclohexylcarbamoyl)-3-aza-bicyclo[3.1.0]hex-3-yl]-2-oxo-ethyl}-1H-indazole-3-carboxylic acid amide] yielded an IC50 of 34 nM.
Compound `CC1(C)CCC[C@H](NC(=O)[C@@H]2[C@@H]3C[C@@H]3CN2C(=O)Cn2nc(C(N)=O)c3ccccc32)C1` [Example 89, 1-{2-[(1R,2S,5S)-2-((S)-3,3-Dimethyl-cyclohexylcarbamoyl)-3-aza-bicyclo[3.1.0]hex-3-yl]-2-oxo-ethyl}-1H-indazole-3-carboxylic acid amide] has an IC50 of 2130 nM.
Compound `CC(=O)c1nn(CC(=O)N2[C@@H]3C[C@@H]3C[C@H]2C(=O)N[C@H]2CCCC(C)(C)C2)c2ccc(OCc3ncccn3)cc12` [Example 97, (1R,3S,5R)-2-{2-[3-Acetyl-5-(pyrimidin-2-ylmethoxy)-indazol-1-yl]-acetyl}-2-aza-bicyclo[3.1.0]hexane-3-carboxylic acid ((S)-3,3-dimethyl-cyclohexyl)-amide] has an IC50 of 341 nM.
For `CC(=O)c1nn(CC(=O)N2[C@@H]3C[C@@H]3C[C@H]2C(=O)N[C@@H]2CCCC(C)(C)C2)c2ccc(OCc3ncccn3)cc12` [Example 98, (1R,3S,5R)-2-{2-[3-Acetyl-5-(pyrimidin-2-ylmethoxy)-indazol-1-yl]-acetyl}-2-aza-bicyclo[3.1.0]hexane-3-carboxylic acid ((R)-3,3-dimethyl-cyclohexyl)-amide], the IC50 was 11 nM.
For `CC(=O)c1nn(CC(=O)N2[C@@H]3C[C@@H]3C[C@H]2C(=O)NC2CC(F)(F)C2)c2ccc(OCc3ncccn3)cc12` [Example 104, (1R,3S,5R)-2-{2-[3-Acetyl-5-(pyrimidin-2-ylmethoxy)-indazol-1-yl]-acetyl}-2-aza-bicyclo[3.1.0]hexane-3-carboxylic acid (3,3-difluoro-cyclobutyl)-amide], the IC50 was 273 nM.
`CO[C@@H]1C[C@@H](NC(=O)[C@@H]2C[C@H]3C[C@H]3N2C(=O)Cn2nc(C(N)=O)c3ccccc32)CC(C)(C)C1` [Example 105, 1-{2-[(1R,3S,5R)-3-((1S,5S)-5-Methoxy-3,3-dimethyl-cyclohexylcarbamoyl)-2-aza-bicyclo[3.1.0]hex-2-yl]-2-oxo-ethyl}-1H-indazole-3-carboxylic acid amide] was tested, and the IC50 was 225 nM.
`CO[C@H]1C[C@H](NC(=O)[C@@H]2C[C@H]3C[C@H]3N2C(=O)Cn2nc(C(N)=O)c3ccccc32)CC(C)(C)C1` [Example 106, 1-{2-[(1R,3S,5R)-3-((1R,5R)-5-Methoxy-3,3-dimethyl-cyclohexylcarbamoyl)-2-aza-bicyclo[3.1.0]hex-2-yl]-2-oxo-ethyl}-1H-indazole-3-carboxylic acid amide] was tested, and the IC50 was 18 nM.
Work on `COC1CC(NC(=O)[C@@H]2C[C@H]3C[C@H]3N2C(=O)Cn2nc(C(N)=O)c3ccccc32)CC(C)(C)C1` (stereo partly drawn) [Example 107, 1-{2-[(1R,3S,5R)-3-(cis-5-Methoxy-3,3-dimethyl-cyclohexylcarbamoyl)-2-aza-bicyclo[3.1.0]hex-2-yl]-2-oxo-ethyl}-1H-indazole-3-carboxylic acid amide] yielded an IC50 of 467 nM.
Work on `CC(=O)c1nn(CC(=O)N2[C@H](C(=O)N[C@@H]3CCCC(C)(C)C3)C[C@@]3(CO)C[C@@H]23)c2cnccc12` [Example 121, (1R,3S,5S)-2-[2-(3-Acetyl-pyrazolo[3,4-c]pyridin-1-yl)-acetyl]-5-hydroxymethyl-2-aza-bicyclo[3.1.0]hexane-3-carboxylic acid ((R)-3,3-dimethyl-cyclohexyl)-amide] yielded an IC50 of 15 nM.
Work on `CC(=O)c1nn(CC(=O)N2[C@H](C(=O)N[C@H]3CCCC(C)(C)C3)C[C@@]3(CO)C[C@@H]23)c2cnccc12` [Example 122, (1R,3S,5S)-2-[2-(3-Acetyl-pyrazolo[3,4-c]pyridin-1-yl)-acetyl]-5-hydroxymethyl-2-aza-bicyclo[3.1.0]hexane-3-carboxylic acid ((S)-3,3-dimethyl-cyclohexyl)-amide] yielded an IC50 of 2200 nM.
Work on `CC(=O)c1nn(CC(=O)N2[C@@H]3C[C@@H]3C[C@H]2C(=O)N[C@H]2C[C@H](O)CC(C)(C)C2)c2ccccc12` [Example 124, (1R,3S,5R)-2-(2-(3-acetyl-1H-indazol-1-yl)acetyl)-N-((1R,5R)-5-hydroxy-3,3-dimethylcyclohexyl)-2-azabicyclo[3.1.0]hexane-3-carboxamide] yielded an IC50 of 10 nM.
`CC(=O)c1nn(CC(=O)N2[C@@H]3C[C@@H]3C[C@H]2C(=O)N[C@@H]2C[C@@H](O)CC(C)(C)C2)c2ccccc12` [Example 125, (1R,3S,5R)-2-(2-(3-acetyl-1H-indazol-1-yl)acetyl)-N-((1S,5S)-5-hydroxy-3,3-dimethylcyclohexyl)-2-azabicyclo[3.1.0]hexane-3-carboxamide] was tested, and the IC50 was 1100 nM.

Source: patent US9487483B2, “Complement pathway modulators and uses thereof” (priority 2012, dated 2016)
